Measured values published in patent publication US8105608B2, “Method of treatment using ligand-immunogen conjugates” (Purdue Research Foundation, priority 2000, dated 2012).

Test system: M109 cells
Experiment: Survival of mice with M109 cells implanted intraperitoneally close to the liver
Format: in vivo
Conditions: Example 16; folate-FITC 1500 nmoles/kg, IFN-α 7.5×10^4 units/day days 7, 8, 9, 11, 14; FITC-KLH immunized; 5 mice per group; PBS 17 days
Experimental: Furthermore, in an effort to reduce the time required to obtain long-term survival data, the tumor cells were implanted intraperitoneally close to the liver. […] Aminofluorescein was injected along with the various cytokine combinations as a control because this compound is not linked to folate and will not retarget anti-fluorescein antibodies to tumor cells.
Each mouse was injected with 0.2 ml of a 1:10 dilution of the antibody stock solution on days 1, 4, 9, and 14 after tumor implantation to achieve NK cell depletion.
Additionally, the animals were immunized with FITC-labeled keyhole limpit hemocyanin (KLH) rather than FITC-labeled BSA.
Aminofluorescein was injected along with the IL-2, IFN-α cytokine combination as a control because this compound is not linked to folate and will not retarget anti-fluorescein antibodies to tumor cells.
Additionally, the animals were immunized with DNP-labeled keyhole limpit hemocyanin (KLH).
Additionally, the animals (5 mice per group) were immunized with FITC-labeled keyhole limpit hemocyanin (KLH) rather than FITC-labeled BSA.

Substance: IFN-α
- median survival time: 17 days
